In the supplement of paper PMC10307832:

Assays:
Assay in all cases: relative viability (nuclei count vs DMSO), 5 days (fraction); higher = more cells survive
DM3189 + Crizotinib = compound: C1CN(CCN1)C2=CC=C(C=C2)C3=CN4C(=C(C=N4)C5=CC=NC6=CC=CC=C56)N=C3 [DM3189] + C[C@@H](Oc1cc(-c2cnn(C3CCNCC3)c2)cnc1N)c1c(Cl)ccc(F)c1Cl [Crizotinib] (partner 1 µM)
How it was run: (§1)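 Values are medians from duplicate plates. Each reflects relative viability, defined as the nuclei count of treated wells over that of vehicle wells. Lung cancer cell lines in 1536-well plates were pin-tool dosed one day after seeding with one drug alone or with a fixed anchor-drug dose plus five library-drug doses (not always all listed) in √10 steps, then fixed, stained and imaged at 4× after 5 days.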

DM3189 + Bortezomib = compound: C1CN(CCN1)C2=CC=C(C=C2)C3=CN4C(=C(C=N4)C5=CC=NC6=CC=CC=C56)N=C3 [DM3189] + CC(C)C[C@H](NC(=O)[C@H](Cc1ccccc1)NC(=O)c1cnccn1)B(O)O [Bortezomib] (partner 0.002 µM)
How it was run: as §1

DM3189 + Pictilisib = compound: C1CN(CCN1)C2=CC=C(C=C2)C3=CN4C(=C(C=N4)C5=CC=NC6=CC=CC=C56)N=C3 [DM3189] + CS(=O)(=O)N1CCN(Cc2cc3nc(-c4cccc5[nH]ncc45)nc(N4CCOCC4)c3s2)CC1 [Pictilisib] (partner 1 µM)
How it was run: as §1

DM3189 + Alpelisib = compound: C1CN(CCN1)C2=CC=C(C=C2)C3=CN4C(=C(C=N4)C5=CC=NC6=CC=CC=C56)N=C3 [DM3189] + Cc1nc(NC(=O)N2CCC[C@H]2C(N)=O)sc1-c1ccnc(C(C)(C)C(F)(F)F)c1 [Alpelisib] (partner 2 µM)
How it was run: as §1

DM3189 + Linsitinib = compound: C1CN(CCN1)C2=CC=C(C=C2)C3=CN4C(=C(C=N4)C5=CC=NC6=CC=CC=C56)N=C3 [DM3189] + C[C@]1(O)C[C@@H](c2nc(-c3ccc4ccc(-c5ccccc5)nc4c3)c3c(N)nccn32)C1 [Linsitinib] (partner 1 µM)
How it was run: as §1

Cell Line | relative viability (DM3189 + Crizotinib; first compound 0.08 µM) | relative viability (DM3189 + Crizotinib; first compound 0.253 µM) | relative viability (DM3189 + Crizotinib; first compound 0.8 µM) | relative viability (DM3189 + Crizotinib; first compound 2.53 µM) | relative viability (DM3189 + Bortezomib; first compound 0.08 µM) | relative viability (DM3189 + Bortezomib; first compound 0.253 µM) | relative viability (DM3189 + Bortezomib; first compound 0.8 µM) | relative viability (DM3189 + Bortezomib; first compound 2.53 µM) | relative viability (DM3189 + Pictilisib; first compound 0.08 µM) | relative viability (DM3189 + Pictilisib; first compound 0.253 µM) | relative viability (DM3189 + Pictilisib; first compound 0.8 µM) | relative viability (DM3189 + Pictilisib; first compound 2.53 µM) | relative viability (DM3189 + Alpelisib; first compound 0.08 µM) | relative viability (DM3189 + Alpelisib; first compound 0.253 µM) | relative viability (DM3189 + Alpelisib; first compound 0.8 µM) | relative viability (DM3189 + Alpelisib; first compound 2.53 µM) | relative viability (DM3189 + Linsitinib; first compound 0.08 µM) | relative viability (DM3189 + Linsitinib; first compound 0.253 µM) | relative viability (DM3189 + Linsitinib; first compound 0.8 µM) | relative viability (DM3189 + Linsitinib; first compound 2.53 µM)
ChaGo-K-1 | 1.03 | 1.1 | 0.97 | 1.09 | 1.32 | 0.882 | 1.01 | 0.757 | 0.756 | 0.67 | 0.808 | 0.584 |  |  |  |  |  |  |  | 
EKVX | 0.952 | 0.918 | 0.925 | 0.896 | 1.1 | 1.01 | 1.04 | 1.2 | 0.483 | 0.429 | 0.413 | 0.446 | 0.944 | 0.77 | 0.807 | 0.869 | 0.896 | 1 | 0.717 | 0.993
EMC-BAC-2 | 0.8 | 0.71 | 0.686 | 0.773 | 1.12 | 1.01 | 0.956 | 1.1 | 0.587 | 0.538 | 0.507 | 0.54 | 0.684 | 0.432 | 0.718 | 0.8 | 0.848 | 0.8 | 0.82 | 0.827
EPLC-272H | 0.97 | 0.96 | 0.941 | 0.821 | 1.07 | 0.86 | 0.868 | 0.831 | 0.322 | 0.347 | 0.276 | 0.27 | 0.876 | 1.1 | 0.916 | 0.838 | 1.24 | 1.3 | 1.16 | 1.29
H3255 | 1.09 | 0.818 | 0.623 | 0.845 | 1.46 | 0.812 | 0.708 | 0.801 | 0.585 | 0.511 | 0.446 | 0.529 | 0.834 | 0.739 | 0.681 | 0.847 | 0.951 | 0.982 | 0.846 | 0.994
HARA | 0.991 | 0.992 | 0.917 | 1.21 | 1.28 | 1.11 | 1.04 | 1.2 | 0.645 | 0.362 | 0.288 | 0.35 | 0.801 | 0.766 | 0.787 | 0.958 | 1.2 | 0.853 | 0.997 | 1.31
HCC-15 | 0.883 | 0.763 | 0.824 | 0.685 | 1.11 | 1 | 0.978 | 0.862 | 0.764 | 0.695 | 0.584 | 0.661 | 0.951 | 0.798 | 0.802 | 0.894 | 0.873 | 0.821 | 0.857 | 0.715
HCC-44 | 0.859 | 0.818 | 0.625 | 0.893 | 0.975 | 0.905 | 0.781 | 0.995 | 0.815 | 0.615 | 0.472 | 0.752 | 0.874 | 0.942 | 0.631 | 0.757 | 0.711 | 0.724 | 0.56 | 0.733
